Several values for one entry are separate records, joined by “and”; a condition that tells them apart may be missing. Identical values can stand only once. Entries after “also recorded” stand apart in the source; their conditions may differ.
Tests used:
[1] = tested on: PINK1−/− mice; assay: Induced myocardial infarction model; format: in vivo
Procedure: Utilizing mice dosed with kinetin, adenine or vehicle for two weeks, we induced myocardial infarction by ligating the left anterior descending artery at the level of the left atrial appendage (Wang et al., 2006) or sham surgery. Following infarct for 24 or 72 hours, we sacrificed the mice and analyzed the heart by TUNEL staining as cardiomyocytes are susceptible to cell death following infarct. […] These experiments replicate our results in neurons in which kinetin treatment will block apoptosis in response to a number of cellular stressors.

[2] = molecular target: PINK1^wt (Homo sapiens, UniProt Q9BXM7); assay: Parkin mitochondrial translocation assay in HeLa cells after CCCP depolarization; format: cell-based; parameters: transfection with MitoGFP, mCherry Parkin, and full length PINK1FLAG3 in a 1:4:2 ratio; expressed in transfected cells; host or cells: HeLa; conditions: for 50% Recruitment Times (R50) mCherry Parkin to depolarized mitochondria: HeLa cells with PINK1^wt, mCherryParkin, mitoGFP, 48 hours, 25 μM; for mean change in co-localization: PINK1^wt expressing cells, algorithm quantified
Procedure: (§1) Parkin phosphorylation and mitochondrial translocation assay: HeLa cells were grown in DMEM supplemented with 10% FBS. Log phase cells were plated in 24 well plates with glass coverslips (Mattek) pretreated with fibronectin. Cells were pretreated with 50 μM of the indicated compound, followed by transfection with MitoGFP, mCherry Parkin, and full length PINK1FLAG3 in a 1:4:2 ratio using Fugene 6 (Promega). Fields of cells were selected by expression of MitoGFP (6 fields/well-3 wells/condition) and imaged at five-minute intervals following depolarization with 5 μM CCCP. Quantification was performed according to published protocols^3 and by creation of a Matlab based script.
(§2) Our ability to enhance PINK1 activity in-vitro using KTP led us to investigate means by which to achieve enhanced activity in cells expressing PINK1. […] We treated cells with either kinetin or adenine (FIG. 2A) and measured Parkin localization following mitochondrial depolarization with CCCP (FIG. 2B). HeLa cells, which have low levels of endogenous PINK1 and PARKIN, were transfected with wildtype or PINK1^G309D, mCherryParkin, and mitoGFP. After 48 hours of incubation with 25 μM adenine, kinetin or equivalent DMSO, we imaged CCCP-mediated depolarization of mitochondria (FIGS. 2C, 2D) and calculated the percentage of GFP labelled mitochondria with mCherryParkin associated (FIG. 2E). In line with previous reports^3, transfection of PINK1^G309D slowed the 50% recruitment (R50) time of mCherryParkin to depolarized mitochondria (23±2 min vs 15±1 min R50) (FIGS. 2C-2E Table.2). […] Using an algorithm to accurately quantify the time dependent change in co-localization, we calculated that PINK1^wt expressing cells achieved a mean change in co-localization of 0.112 with DMSO or adenine and 0.13 with kinetin treatment (FIGS. 7A-7F); PINK1^G309D expressing cells treated with DMSO or adenine achieved delta co-localization of 0.076, but upon addition of kinetin returned to near-PINK1-wildtype levels (0.124).
(§3) To test the PINK1-dependency of our findings, we assayed PINK1 activity by using phospho specific antibodies raised against Parkin's PINK1-specific S65 phosphosite^21 after immuno-precipitating Parkin. […] To test whether kinetin stimulated Parkin localization was due to reversible binding of kinetin to PINK1, we treated the cells with fresh medium for 96 hours before performing a new recruitment assay. Similar recruitment rates were observed following the washout (FIG. 2F). […] We followed previously published methods to calculate the percentage of GFP labeled mitochondria with mCherryParkin associated. Transfection of G309DPINK11-581 slowed the rate of mCherryParkin recruitment (23+2 min vs 15+1 min R50) as per reported results. The addition of kinetin, but not adenine, increased the rate of mCherryParkin recruitment in wt cells from 15+1 to 10+2 min and G309D cells from 23+2 to 15+2 min. We then incubated the cells with kinetin for 2 days, washed the cells with fresh medium then performed the recruitment assay and saw the same increase in the rate of recruitment. […] We developed an algorithm to calculate the change in co-localization. The wtPINK1 cells achieved a mean change in co-localization of 0.11 with DMSO, adenine or kinetin treatment. G309DPINK1 expressing cells treated with DMSO or Adenine, achieved delta co-localization of 0.075 but upon addition of kinetin indicating rescue to the wt level (0.11) (P>0.05).

[3] = molecular target: PINK1^G309D (Homo sapiens, UniProt Q9BXM7, G309D); assay: as above; format: cell-based; parameters: transfection with MitoGFP, mCherry Parkin, and full length PINK1FLAG3 in a 1:4:2 ratio; expressed in transfected cells; host or cells: HeLa; conditions: for 50% Recruitment Times (R50) mCherry Parkin to depolarized mitochondria: HeLa cells with PINK1^G309D, mCherryParkin, mitoGFP, 48 hours, 25 μM; for delta co-localization: PINK1^G309D expressing cells, algorithm quantified
Procedure: as §1, §2, §3

[4] = tested on: SH-SY5Y cells; assay: H2O2 induced apoptosis, Annexin V / PI FACS assay; format: cell-based, human; conditions: for total amount of apoptotic cells: 50 μM for 96 hours, then 400 μM H2O2 for 24 hours
Procedure: Apoptosis assays and PINK1 shRNA: SH-SY5Y cells (ATCC) were cultured in 1:1 mix of F12K and DMEM supplemented with 20% FBS. PINK1 shRNA lentivirus were produced using a pLKO.1 based shRNA (Sigma) by contransfection with Δ8.9 and pMGD2 vectors in HEK293T cells. SH-SY5Y cells were infected with lentivirus followed by selection with puromycin ([…]). […] Subsequently, cells were stained with Annexin V-FITC and PI and analyzed (FACS Diva) on a FACS LSRII Cytometer ([…]) Apoptosis was calculated as the difference between H2O2 treated samples and the respective control.
Overexpression of PINK1 in neuronal cells (e.g. dopaminergic (DA)) promotes survival in response to oxidative stress and other mitochondrial toxins^7. Before testing the effects of kinetin on apoptosis, we treated DA neurons with 50 μM of either kinetin or adenine and measured cell density after 10 days. […] SH-SY5Y cells were treated with 50 μM kinetin, adenine or DMSO for 96 hours, followed by 400 μM H2O2 treatment for additional 24 hours. Using a cytometry-based FACS assay involving cellular annexin V and propidium iodide staining, we determined the percentage of apoptotic cells after treatment with DMSO, adenine or kinetin.

[5] = tested on: PINK1^G309D mutant expressing cells; assay: Parkin S65 phosphorylation after CCCP, phospho specific antibodies after immuno-precipitating Parkin; format: cell-based; conditions: S65 phosphosite
Procedure: as §1
To test the PINK1-dependency of our findings, we assayed PINK1 activity by using phospho specific antibodies raised against Parkin's PINK1-specific S65 phosphosite^21 after immuno-precipitating Parkin. […] To test whether kinetin stimulated Parkin localization was due to reversible binding of kinetin to PINK1, we treated the cells with fresh medium for 96 hours before performing a new recruitment assay. Similar recruitment rates were observed following the washout (FIG. 2F). […] We followed previously published methods to calculate the percentage of GFP labeled mitochondria with mCherryParkin associated. […]

Sequence of PINK1^G309D (Q9BXM7 78-581 G309D): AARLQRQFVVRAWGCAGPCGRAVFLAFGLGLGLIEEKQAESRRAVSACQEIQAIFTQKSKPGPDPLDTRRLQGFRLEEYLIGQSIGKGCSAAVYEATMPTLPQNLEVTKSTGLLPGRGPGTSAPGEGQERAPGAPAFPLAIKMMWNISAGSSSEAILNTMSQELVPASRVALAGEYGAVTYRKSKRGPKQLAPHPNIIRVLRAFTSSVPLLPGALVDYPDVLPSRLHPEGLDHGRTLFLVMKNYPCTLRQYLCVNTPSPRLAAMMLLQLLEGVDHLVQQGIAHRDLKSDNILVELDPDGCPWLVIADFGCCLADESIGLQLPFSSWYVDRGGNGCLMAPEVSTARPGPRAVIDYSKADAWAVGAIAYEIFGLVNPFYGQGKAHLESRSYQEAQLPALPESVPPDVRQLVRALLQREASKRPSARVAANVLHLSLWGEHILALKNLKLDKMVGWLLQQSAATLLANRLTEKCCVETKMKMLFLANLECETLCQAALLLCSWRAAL
Sequence of PINK1^wt (Q9BXM7 78-581): as the sequence (Q9BXM7 78-581 G309D) above, with D232G counted along it

Row | Compound | scar size and level of collagen deposition [1] | 50% Recruitment Times (R50) mCherry Parkin to depolarized mitochondria [2] | mean change in co-localization [2] | 50% Recruitment Times (R50) mCherry Parkin to depolarized mitochondria [3] | delta co-localization [3] | total amount of apoptotic cells [4] | total amount of apoptotic cells ([4]; listed as Kinetin) | total number of apoptotic cells ([4]; 48 hours of treatment, then 24 hours of 400 uM hydrogen peroxide) | phosphorylation levels of Parkin [5] | delta co-localization ([3]; listed as Adenine)
1 | c1coc(CNc2ncnc3[nH]cnc23)c1 [kinetin] | not | 10±2 min and 10+2 min | 0.13 and 0.11 | 15±2 min and 15+2 min | 0.124 and 0.11 | significant decrease; also recorded: blocks apoptosis | blocks apoptosis | Decrease in the total number of apoptotic cells | significantly increased; also recorded: Robust increase | 
2 | Nc1ncnc2nc[nH]c12 [adenine, reference compound] | not | 15 ± 1 min | 0.112 and 0.11 | 23 ± 2 min | 0.076 | no significant change |  |  | not | 0.075

— patent US11427588B2, “Compositions and methods for treating neurodegenerative diseases and cardiomyopathy” (THE REGENTS OF THE UNIVERSITY OF CALIFORNIA, priority 2013, dated 2022)
